Assay results from patent US10293016B2, “Use of instant asparagus powder in food, medicine and health food” (Q[…] DEVELOPMENT CO., LTD, priority 2013, dated 2019).

Legend:
[1] = test system: Neurotransmitter in Hippocampus of Rat; assay: CSM test, level of neurotransmitter in hippocampus; format: in vivo; conditions: dosage 3 mg/Kg
Text: (§1) The chronic emotional stress-response model takes as an emotional stress-response resource an uncertain stimulation of drinking by an empty bottle, so as to investigate the influence which the emotional stress of 14 days exerts on the behaviors, and neuroendocrine and immune functions of the rats.
After adaptation for one week, the rats were randomly grouped. Except the normal group, the model groups were fed in individual cages and subjected to the uncertain stimulation of drinking by an empty bottle to establish the anxiety stress models. The specific method is as follows: the training of timely feeding water lasts for 7 days, that is, water was being given to the animals for 10 minutes every day at 9:00-9:10 and 17:00-17:10, and at other times, the water bottles were taken away, without water given. After the period of timely feeding water was ended, the stress-response experiment started, wherein the uncertain stimulation of the empty bottle was given once or twice a day in the above two periods of time for two weeks. The normal group was not subjected to any treatment, and was fed with water and food freely. The behaviors observed included attacking (biting or attacking the empty bottle and the cage), exploratory (moving around and visiting the place where the water bottle was located), and grooming behaviors (combing fur and washing face). The specific method was: the 10 minutes of the empty bottle stimulation was equally divided into 10 periods of time, the above-mentioned three types of behaviors of each rat were recorded in each period of time, wherein it was marked as “1” if the behavior appears, otherwise it was marked as “0”. The total score obtained in the observation within 10 minutes was between 0 and 10. […] The average score of the first 3 days and the last 3 days of the 14 observation days was used for statistical analysis. […]
(§2) The following endocrine levels were detected in the test: (1) plasma cortisol concentration, (2) catecholamine level, (3) 5-hydroxytryptamine level.

Mouse [2] = assay: Chronic emotional stress-response model (CSM) test, behaviors; format: in vivo, rat; conditions: CSM empty bottle stimulation, dosage 3 mg/Kg, n=10
Mouse [3] = assay: Elevated plus maze model (EPM) test; format: in vivo
Text: The elevated plus maze has been widely used in anxiety experiments of the small rodent. This system is used to detect the situation of decreasing animals' inherent aversion to a high position and a open field, after using the anxiety drug. The rodent (e.g. rat, mouse), which have the exploratory behavior, will actively explore the open arms after placed in the elevated plus maze, but fear the high and open environment in the open arms. The antianxiety drug increases the open-arm exploratory activities, while the anxiety drug has the opposite effect.
The elevated plus maze has a pair of open arms and a pair of closed arms. The animal, after a period of time of adaptation, is rapidly placed in the central platform of the EPM in such a way that its head directly faces one of the open arms. A tracking camera is used to record following: (1) times of entering the open arm (open arm entry, OE) within 5 minutes, wherein it is considered as one time of entering an open arm when all the four paws of the rat have entered any open arm, and meanwhile this entry activity is finished when one paw completely withdraws from this arm; (2) duration of staying in an open arm (open arm time, OT) within 5 minutes, wherein the unit of the duration of staying in an open arm is “second”; (3) times of entering a closed arm (close arm entry, CE) within 5 minutes, wherein it is considered as one time of entering a closed arm when all the four paws of the rat have entered any closed arm; (4) duration of staying in a closed arm (close arm entry, CT) within 5 minutes, wherein the unit of duration of staying in a closed arm is “second”. The following is calculated from (1)-(4), respectively: […]
(1) the total number of the times of the open arm entry and the closed arm entry (OE+CE): representing the motion vitality of the rat;
(2) the ratio of the times of the open arm entry (OE %); the times of the open arm entry/(OE+CE)×100%;
(3) the ratio of the duration of staying in the open arms (OT %), i.e. the duration of staying in the open arms/(OT+CT)×100%. Each rat is tested for 5 minutes. OE % and OT % represent the indices of the antianxiety effect.

Mouse [4] = assay: Analysis of times of locomotor activities; format: in vivo
Text: The condition of the locomotor activity of an animal reflects the functional status of its central nervous system. The central stimulant drug can prominently increase the locomotor activity but decrease the exploratory behavior, and a certain dosage of antipsychotic drug can decrease the exploratory behavior without influencing the locomotor activity. A YLS-1A multi-functional mouse locomotor activity recorder is used to record the situation of locomotor activity of the mouse at different points of time after drug administration.

[5] = test system: Neurotransmitter in Serum of Rat; assay: CSM test, level of neurotransmitter in serum; format: in vivo; conditions: dosage 3 mg/Kg
Text: as §1
After adaptation for one week, the rats were randomly grouped. Except the normal group, the model groups were fed in individual cages and subjected to the uncertain stimulation of drinking by an empty bottle to establish the anxiety stress models. The specific method is as follows: the training of timely feeding water lasts for 7 days, that is, water was being given to the animals for 10 minutes every day at 9:00-9:10 and 17:00-17:10, and at other times, the water bottles were taken away, without water given. After the period of timely feeding water was ended, the stress-response experiment started, wherein the uncertain stimulation of the empty bottle was given once or twice a day in the above two periods of time for two weeks. The normal group was not subjected to any treatment, and was fed with water and food freely. The behaviors observed included attacking (biting or attacking the empty bottle and the cage), exploratory (moving around and visiting the place where the water bottle was located), and grooming behaviors (combing fur and washing face). The specific method was: the 10 minutes of the empty bottle stimulation was equally divided into 10 periods of time, the above-mentioned three types of behaviors of each rat were recorded in each period of time, wherein it was marked as “1” if the behavior appears, otherwise it was marked as “0”. The total score obtained in the observation within 10 minutes was between 0 and 10. […] The average score of the first 3 days and the last 3 days of the 14 observation days was used for statistical analysis. The samples were gathered when the experiment was ended to detect the neuroendocrine and immune indices.
The normal control group was not subjected to any treatment; all the other groups were subjected to the stimulation.
as §2

CN1C(=O)CN=C(c2ccccc2)c2cc(Cl)ccc21 [DZP, diazepam]
NE (norepinephrine) ([1]; n=10, negative control 0.104 ± 0.048): 0.080 ± 0.053 pg/mL
Dopamine ([1]; n=10, negative control 9.542 ± .93): 11.38 ± 4.33 ng/mL
NA ([1]; n=10, negative control 40.97 ± 13.25): 37.22 ± 10.05 pg/mL
Grooming Behavior (%) (Mouse [2]; negative control 2.38 ± 1.16): 1.78 ± 1.06%
Exploratory Behavior (%) (Mouse [2]; negative control 2.44 ± 0.88): 1.09 ± 0.52%
Attacking Behavior (%) (Mouse [2]; negative control 2.56 ± 2.09): 0.69 ± 0.52%
OE + CE (times) (Mouse [3]; EPM 5 minutes, dosage 3 mg/Kg, n=10, mean±SD, negative control 10.8 ± 3.9): 12.9 ± 5.2 times
OT (%) (Mouse [3]; EPM 5 minutes, dosage 3 mg/Kg, n=10, negative control 20.1 ± 4.5, p<0.05): 42.3 ± 5.7 %
OE (%) (Mouse [3]; EPM 5 minutes, dosage 3 mg/Kg, n=10, negative control 22.8 ± 5.9, p<0.05): 40.9 ± 5.2 %
values of OT % and OE % and total number of the times of entering arms (in words) (Mouse [3]; EPM, with the dosage of administration): can increase the values of OT % and OE % without increasing the total number of the times of entering arms
Times of Locomotor Activity 15-20 min (times) (Mouse [4]; 15-20 min after administration, dosage 3 mg/Kg, n=10, negative control 86 ± 35): 48 ± 46 times
Times of Locomotor Activity 30-35 min (times) (Mouse [4]; 30-35 min after administration, dosage 3 mg/Kg, n=10, negative control 64 ± 15, p<0.05): 32 ± 16 times
Times of Locomotor Activity 60-65 min (times) (Mouse [4]; 60-65 min after administration, dosage 3 mg/Kg, n=10, negative control 53 ± 9, p<0.05): 24 ± 6 times
times of locomotor activities of the mouse (in words) (Mouse [4]; with the dosage of administration): prominently reduce the times of locomotor activities of the mouse at the two periods of time, namely, 30 minutes and 60 minutes
5-HT ([5]; n=10, negative control 0.86 ± 0.15, p<0.05): 1.12 ± 0.13 ng/mL
NE ([5]; n=10, negative control 1.15 ± 0.16): 1.00 ± 0.13 pg/mL
DA ([5]; n=10, negative control 5.45 ± 0.76): 6.00 ± 1.70 ng/mL
NA ([5]; n=10, negative control 15.08 ± 0.71): 14.67 ± 0.36 pg/mL
COR (cortisol) ([5]; n=10, negative control 49.94 ± 7.26, p<0.05): 28.94 ± 6.36 ng/mL
